According to patent EP4635500A1, “THERAPEUTIC AGENT FOR BACTERIAL INFECTION” (Sumitomo Pharma Co., Ltd., priority 2022, dated 2024):
Values after ≈ are worked out from the molar mass of the structure shown. Like-named read-outs stand apart in the source and are kept apart here.

System: A. baumannii
Assay: MIC, broth microdilution, CDC/FDA Antibiotic Resistance Isolate Bank (Example 7, Tables 9, 13, 14)
Type: cell-based, Acinetobacter baumannii
Conditions: for MIC: read-out: MIC

## CC(C)(O/N=C(\C(=O)N[C@@H]1C(=O)N2C(C(=O)[O-])=C(C[N+]3(CCNC(=O)c4ccc(O)c(O)c4Cl)CCCC3)CS[C@H]12)c1csc(N)n1)C(=O)O [Cefiderocol, cefiderocol]
55 isolates of A. baumannii
  MICrange: ≤0.06 to 16 µg/mL
Acinetobacter baumannii, A. baumannii KUB No. 5567, AR Bank #70, OXA-58, OXA-100
  MIC: ≤ 0.06 µg/mL
Acinetobacter baumannii, A. baumannii KUB No. 5575, AR Bank #78, OXA-71
  MIC: 4 µg/mL (≈ 5.32 µM)
Acinetobacter baumannii, A. baumannii KUB No. 5580, AR Bank #83, OXA-23, OXA-69, NDM-1
  MIC: 16 µg/mL (≈ 21.3 µM)
Acinetobacter baumannii, A. baumannii KUB No. 5585, AR Bank #88, OXA-64, NDM-1
  MIC: 2 µg/mL (≈ 2.66 µM)
Acinetobacter baumannii, A. baumannii KUB No. 5598, AR Bank #101, OXA-24, OXA-65
  MIC: 0.5 µg/mL (≈ 0.665 µM)
Acinetobacter baumannii, A. baumannii KUB No. 5599, AR Bank #102, OXA-66
  MIC: 0.12 µg/mL (≈ 0.16 µM)
Acinetobacter baumannii, A. baumannii KUB No. 5706, AR Bank #273, OXA-23, OXA-66
  MIC: 0.12 µg/mL (≈ 0.16 µM)
Acinetobacter baumannii, A. baumannii KUB No. 5707, AR Bank #274, OXA-66, OXA-72
  MIC: 0.12 µg/mL (≈ 0.16 µM)
Acinetobacter baumannii, A. baumannii KUB No. 5708, AR Bank #275, OXA-23, OXA-66
  MIC: 0.5 µg/mL (≈ 0.665 µM)
Acinetobacter baumannii, A. baumannii KUB No. 5709, AR Bank #276, no carbapenemase genes (-)
  MIC: 8 µg/mL (≈ 10.6 µM)
Acinetobacter baumannii, A. baumannii KUB No. 5710, AR Bank #277, OXA-24, OXA-65
  MIC: 4 µg/mL (≈ 5.32 µM)
Acinetobacter baumannii, A. baumannii KUB No. 5711, AR Bank #278, OXA-23, OXA-66
  MIC: 0.5 µg/mL (≈ 0.665 µM)
Acinetobacter baumannii, A. baumannii KUB No. 5712, AR Bank #279, OXA-23, OXA-66
  MIC: 0.25 µg/mL (≈ 0.332 µM)
Acinetobacter baumannii, A. baumannii KUB No. 5713, AR Bank #280, OXA-66
  MIC: 0.25 µg/mL (≈ 0.332 µM)
Acinetobacter baumannii, A. baumannii KUB No. 5714, AR Bank #281, OXA-82
  MIC: 0.12 µg/mL (≈ 0.16 µM)
Acinetobacter baumannii, A. baumannii KUB No. 5715, AR Bank #282, OXA-23, OXA-66
  MIC: 0.5 µg/mL (≈ 0.665 µM)
Acinetobacter baumannii, A. baumannii KUB No. 5716, AR Bank #283, OXA-23, OXA-66
  MIC: 0.25 µg/mL (≈ 0.332 µM)
Acinetobacter baumannii, A. baumannii KUB No. 5717, AR Bank #284, OXA-24, OXA-65
  MIC: 0.25 µg/mL (≈ 0.332 µM)
Acinetobacter baumannii, A. baumannii KUB No. 5718, AR Bank #285, OXA-24, OXA-65
  MIC: 1 µg/mL (≈ 1.33 µM)
Acinetobacter baumannii, KUB No. 5719, AR Bank #286
  MIC: 0.5 µg/mL (≈ 0.665 µM)
Acinetobacter baumannii, KUB No. 5720, AR Bank #287
  MIC: 0.5 µg/mL (≈ 0.665 µM)
Acinetobacter baumannii, KUB No. 5721, AR Bank #288
  MIC: 0.25 µg/mL (≈ 0.332 µM)
Acinetobacter baumannii, KUB No. 5722, AR Bank #259
  MIC: 0.12 µg/mL (≈ 0.16 µM)
Acinetobacter baumannii, KUB No. 5723, AR Bank #290
  MIC: 0.5 µg/mL (≈ 0.665 µM)
Acinetobacter baumannii, KUB No. 5724, AR Bank #291
  MIC: 0.5 µg/mL (≈ 0.665 µM)
Acinetobacter baumannii, KUB No. 5725, AR Bank #292
  MIC: 0.5 µg/mL (≈ 0.665 µM)
Acinetobacter baumannii, KUB No. 5726, AR Bank #293
  MIC: 0.5 µg/mL (≈ 0.665 µM)
Acinetobacter baumannii, KUB No. 5727, AR Bank #294
  MIC: 0.5 µg/mL (≈ 0.665 µM)
Acinetobacter baumannii, KUB No. 5728, AR Bank #295
  MIC: 0.5 µg/mL (≈ 0.665 µM)
Acinetobacter baumannii, KUB No. 5729, AR Bank #296
  MIC: 0.5 µg/mL (≈ 0.665 µM)
Acinetobacter baumannii, KUB No. 5730, AR Bank #297
  MIC: 0.12 µg/mL (≈ 0.16 µM)
Acinetobacter baumannii, KUB No. 5731, AR Bank #298
  MIC: 0.5 µg/mL (≈ 0.665 µM)
Acinetobacter baumannii, KUB No. 5732, AR Bank #299
  MIC: 8 µg/mL (≈ 10.6 µM)
Acinetobacter baumannii, KUB No. 5733, AR Bank #300
  MIC: 0.25 µg/mL (≈ 0.332 µM)
Acinetobacter baumannii, KUB No. 5734, AR Bank #301
  MIC: 1 µg/mL (≈ 1.33 µM)
Acinetobacter baumannii, KUB No. 5735, AR Bank #302
  MIC: 4 µg/mL (≈ 5.32 µM)
Acinetobacter baumannii, KUB No. 5736, AR Bank #303
  MIC: 0.12 µg/mL (≈ 0.16 µM)
Acinetobacter baumannii, KUB No. 5737, AR Bank #304
  MIC: ≤ 0.06 µg/mL
Acinetobacter baumannii, KUB No. 5738, AR Bank #305
  MIC: 0.25 µg/mL (≈ 0.332 µM)
Acinetobacter baumannii, KUB No. 5739, AR Bank #306
  MIC: 1 µg/mL (≈ 1.33 µM)
Acinetobacter baumannii, KUB No. 5740, AR Bank #307
  MIC: 0.12 µg/mL (≈ 0.16 µM)
Acinetobacter baumannii, KUB No. 5741, AR Bank #308
  MIC: 0.25 µg/mL (≈ 0.332 µM)
Acinetobacter baumannii, KUB No. 5742, AR Bank #309
  MIC: 4 µg/mL (≈ 5.32 µM)
Acinetobacter baumannii, KUB No. 5743, AR Bank #310
  MIC: 2 µg/mL (≈ 2.66 µM)
Acinetobacter baumannii, KUB No. 5744, AR Bank #311
  MIC: 0.5 µg/mL (≈ 0.665 µM)
Acinetobacter baumannii, KUB No. 5745, AR Bank #312
  MIC: 0.25 µg/mL (≈ 0.332 µM)
Acinetobacter baumannii, KUB No. 5746, AR Bank #313
  MIC: 1 µg/mL (≈ 1.33 µM)
Acinetobacter baumannii, 55 isolates of A. baumannii, read-out: MIC50
  MIC50: 0.5 µg/mL (≈ 0.665 µM)
Acinetobacter baumannii, 55 isolates of A. baumannii, read-out: MIC80
  MIC80: 2 µg/mL (≈ 2.66 µM)
